Columns and labels:
Assay type in all cases: cell-based
pgp = assay: Expression of Pgp (pgp-glo assay, ATP level by luminescence)
Method: NCI-H660 and LNCaP cells were seeded on white transparent bottom 96-well plates at a density of 10^4 cells/well. After 24 hours, the cells were treated with CRISPR ERG, crisprTMPRSS2-ERG, and 30 μM casodex, respectively, for 48 hours. 20 μL of a pgp-glo assay buffer (Promega, USA) was added to all wells except for Na3VO4 condition. 20 μL of 0.25 mM Na3VO4 was added to the Na3VO4 condition. Reaction was initiated by adding 10 μL of 25 mM MgATP. The plates were mixed for a while and then incubated at 37° C. for 40 minutes. The 40 μL of an ATP detection reagent was added to all wells. Then, the plates were incubated at room temperature for 20 minutes and luminescence was measured.

[1] = test system: alpha tubulin, beta3 tubulin; assay: Activity of tubulin protein (Western blotting); settings: LNCaP cells, knock-out (FIG. 4)
Method: NCI-H660 and LNCaP cell lines were seeded on 6-well plates at a density of 2×10^5 cells/well. After 24 hours, the cells were treated with CRISPR ERG, CRISPR TMPRSS2-ERG, and 30 μM casodex, respectively, for 48 hours. The cells were lysed using Pro-prep protein extraction solution (Intron Biotechnology, South Korea). Cell lysates were quantified using a BCA protein assay kit (Thermo Fisher Scientific, USA).
Then, the expression of proteins was identified by Western blotting. Specifically, SDS 5× loading buffer was added to protein samples diluted to 10-20 μg and heated for 5 minutes. The samples were placed in 4-20% Mini-protean TGX gel (Biorad, USA) and run at 120 V for 60 minutes. Then, the gel was transferred to a nitrocellulose membrane at 300 mA for 90 minutes. The membrane was blocked by 3% BSA in PBS and incubated overnight with a primary antibody in PBS containing 1% BSA at 4° C. The membrane was washed three times with PBS containing with 0.01% Tween 20. A secondary antibody was cultured in a PBS containing 1% BSA for 1 hour at room temperature. The membrane was washed three times with PBS containing 0.01% Tween 20. Then, the membrane was visualized with LAS-3000 (Fujifilm, Japan).

caspase 3/7 = assay: Expression of caspase 3/7 (luminescence assay)
Method: NCI-H660 and LNCaP cells were seeded on black transparent bottom 96-well plates at a density of 10^4 cells/well. After 24 hours, the cells were treated with CRISPR ERG, crisprTMPRSS2-ERG, and 30 μM casodex, respectively, for 48 hours. 50 μL of a caspase 3/7 assay buffer (Promega, USA) was added thereto, followed by incubation at room temperature for 1 hour. Then, the activity of caspase 3/7 was detected by measuring luminescence.

NCI-H660 cells = assay: Cell viability, CellTiter 96 aqueous one solution cell proliferation assay
Method: (§1) NCI-H660 and LNCaP cells were seeded on transparent 96-well plates at a density of 10^4 cells/well. […] 10 μL of a CellTiter 96 aqueous one solution cell proliferation assay buffer (Promega, USA) was added thereto, followed by incubation at 37° C. for 1 hour. Then, cell viability was evaluated by measuring absorbance at […].
(§2) NCI-H660 and LNCaP cells were seeded on transparent 96-well plates at a density of 10^4 cells/well. After 24 hours, the cells were treated with CRISPR ERG, CRISPR TMPRSS2-ERG, and 30 μM casodex, respectively, for 48 hours. 10 μL of a CellTiter 96 aqueous one solution cell proliferation assay buffer (Promega, USA) was added thereto, followed by incubation at 37° C. for 1 hour. Then, cell viability was evaluated by measuring absorbance at […].

LNCaP cells = assay: as above
Method: as §1, §2

TMPRSS2-ERG gene = assay: Expression of TMPRSS2-ERG gene by RNA extraction, cDNA synthesis and PCR; settings: CRISPR treated in combination with 30 μM casodex, 48 hours (FIG. 2C)
Method: To identify whether the ERG gene of the cell line prepared in Example 2 was knocked out, expression of the gene was identified by extracting RNA and synthesizing cDNA.
NCI-H660 and LNCaP cell lines were seeded on 6-well plates at a density of 2×10^5 cells/well. After 24 hours, the cells were treated with CRISPR ERG, CRISPR TMPRSS2-ERG, and 30 μM casodex, respectively, for 48 hours. 1 mL of Trizol was added thereto to lyse the cells and the samples were homogenized by voltexing. 100 μL of chloroform was added thereto to separate RNA included in a transparent upper aqueous layer from proteins included in a lower organic layer. The solution was vigorously shaken and incubated at room temperature for 3 minutes. The resultant was centrifuged at 4° C. for 15 minutes at 13,000 rpm to obtain a clean aqueous layer including total RNA. Subsequently, the supernatant of the sample was transferred to a new tube and […] of isopropanol was added to each sample to precipitate RNA. The sample was incubated at room temperature for 10 minutes, and then centrifuged at 13,000 rpm at 4° C. for 15 minutes to obtain pellets of total RNA. Then, the supernatant was decanted and RNA was washed with 1 mL of 75% ethanol. […] RNA was resuspended in RNase-free water and absorbance of RNA was measured at 260 nm to determine a concentration of RNA. […]

[2] = LNCaP cells, knock-out in combination with 30 μM casodex (FIG. 3C)
[3] = normal and resistant LNCaP cells, knock-out alone (FIG. 3C)

Compound	ATP level (pgp; [2])	ATP level (pgp; [3])	amount of polymeric alpha tubulin [1]	amount of water-soluble alpha tubulin [1]	beta3 tubulin [1]	expression of caspase 3/7 (caspase 3/7; cell line treated with CRISPR TMPRSS2-ERG alone, 48 hours (FIG. 2D))	cell viability (NCI-H660 cells; 30 μM casodex in combination with CRISPR TMPRSS2-ERG, 48 hours, compared with CRISPR TMPRSS2-ERG alone (FIG. 2B))	cell viability (NCI-H660 cells; casodex concentration in the range of 100 μM to 200 μM (FIG. 2B))	cell viability (LNCaP cells; 30 μM casodex in combination with CRISPR TMPRSS2-ERG, 48 hours, compared with CRISPR TMPRSS2-ERG alone (FIG. 2A))	cell viability (LNCaP cells; casodex concentration in the range of 100 μM to 200 μM (FIG. 2A))	expression level of TMPRSS2-ERG gene (TMPRSS2-ERG gene; LNCaP cell line)	expression level of TMPRSS2-ERG gene (TMPRSS2-ERG gene; NCI-H660 cell line)	expression of caspase 3/7 (caspase 3/7; 30 μM casodex in combination with CRISPR TMPRSS2-ERG, 48 hours, compared with CRISPR TMPRSS2-ERG alone (FIG. 2D))
CRISPR ERG: CRISPR sgRNA for ERG, 5′TGCCTACGGAACGCCACACCTGG 3′, delivered with Cas9 nuclease to knock out ERG (listed as DNA, chemistry not given here; the letters are possibly those of the target site)	significantly increased	significantly increased	decreased	increased	no significant difference								
CRISPR TMPRSS2-ERG: CRISPR sgRNA for TMPRSS2-ERG, 5′AAGGCTTCCTGCCGCGCTCCAGG 3′, delivered with Cas9 nuclease to knock out TMPRSS2-ERG (listed as DNA, chemistry not given here; the letters are possibly those of the target site)	significantly increased	significantly increased	decreased	increased	no significant difference	significantly increased							
CC(O)(CS(=O)(=O)c1ccc(F)cc1)C(=O)Nc1ccc(C#N)c(C(F)(F)F)c1 (stereo not drawn) [casodex]							significantly reduced	significantly reduced	significantly reduced	significantly reduced	significantly reduced	significantly reduced	more significantly increased
